Assay results published in patent publication US20260297081A1, “COMPOUNDS AND METHODS OF TREATING CANCERS” (Cullgen Inc., priority 2023, published 2026).

How the values were obtained:
Calu-1 cells = assay: Anti-proliferation (viability) of NSCLC Calu-1 cells, 3 days (Table 7, FIG. 2B); assay type: cell-based; settings: Homo sapiens, 72 h; Calu-1 cells, 3 days, 10-point serial dilution; read-out: GI IC50 in Calu-1
Procedure, shortened: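 Cells treated with heterobifunctional compounds in 10-point serial dilution, then viability measured; Calu-1 NSCLC cells exposed for 3 days, ER+ T47D breast cancer cells for 6 days.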

MCF7 cells = assay: Anti-proliferation (viability) of MCF7 cells (Table 7, FIG. 2B); assay type: cell-based; settings: Homo sapiens, MCF7, MCF7 cells, 3-6 days, 10-point serial dilution; read-out: GI IC50 in MCF-7

Row | SMILES | IC50 (Calu-1 cells) | IC50 (MCF7 cells)
1 | CC(=O)c1c(C)c2cnc(Nc3ccc(N4CCN(CC(=O)NC5CC6(C5)CC(Nc5cc(C)ccc5C(=O)Nc5cc(C)on5)C6)CC4)cn3)nc2n(C2CCCC2)c1=O (centres unmarked) [CPD-286, 2-((6-(2-(4-(6-((6-acetyl-8-cyclopentyl-5-methyl-7-oxo-7,8-dihydropyrido[2,3-d]pyrimidin-2-yl)amino)pyridin-3-yl)piperazin-1-yl)acetamido)spiro[3.3]heptan-2-yl)amino)-4-methyl-N-(5-methylisoxazol-3-yl)benzamide] | ≥ 50 nM | > 100 nM
2 | [2H]C([2H])([2H])Nc1ccc(C(=O)Nc2cn(C)c(C3CC3)n2)c(NC2CC(NC(=O)N3CCN(c4ccc(Nc5ncc6c(C)c(C(C)=O)c(=O)n(C7CCCC7)c6n5)nc4)CC3)C2)n1 (centres unmarked) [CPD-287, 4-(6-((6-acetyl-8-cyclopentyl-5-methyl-7-oxo-7,8-dihydropyrido[2,3-d]pyrimidin-2-yl)amino)pyridin-3-yl)-N-(3-((3-((2-cyclopropyl-1-methyl-1H-imidazol-4-yl)carbamoyl)-6-((methyl-d3)amino)pyridin-2-yl)amino)cyclobutyl)piperazine-1-carboxamide] | ≥ 50 nM | > 100 nM
3 | CC(=O)c1c(C)c2cnc(Nc3ccc(N4CCN(CC(=O)NC5CC(Nc6nc(NC(C)C)ccc6C(=O)Nc6cn(C)c(C7CC7)n6)C5)CC4)cn3)nc2n(C2CCCC2)c1=O (centres unmarked) [CPD-288, 2-((3-(2-(4-(6-((6-acetyl-8-cyclopentyl-5-methyl-7-oxo-7,8-dihydropyrido[2,3-d]pyrimidin-2-yl)amino)pyridin-3-yl)piperazin-1-yl)acetamido)cyclobutyl)amino)-N-(2-cyclopropyl-1-methyl-1H-imidazol-4-yl)-6-(isopropylamino)nicotinamide] | ≥ 50 nM | > 100 nM
4 | CC(=O)c1c(C)c2cnc(Nc3ccc(N4CCN(C(=O)NC5CC(Nc6nc(NC(C)C)ccc6C(=O)Nc6cn(C)c(C7CC7)n6)C5)CC4)cn3)nc2n(C2CCCC2)c1=O (centres unmarked) [CPD-289, 4-(6-((6-acetyl-8-cyclopentyl-5-methyl-7-oxo-7,8-dihydropyrido[2,3-d]pyrimidin-2-yl)amino)pyridin-3-yl)-N-(3-((3-((2-cyclopropyl-1-methyl-1H-imidazol-4-yl)carbamoyl)-6-(isopropylamino)pyridin-2-yl)amino)cyclobutyl)piperazine-1-carboxamide] | ≥ 50 nM | > 100 nM
5 | CC(=O)c1c(C)c2cnc(Nc3ccc(N4CC5(CN(CCC(=O)N6CCC(Nc7nc(NC(C)C)ccc7C(=O)Nc7ccc(N(C)C)nn7)CC6)C5)C4)cn3)nc2n(C2CCCC2)c1=O [CPD-454, 2-((1-(3-(6-(6-((6-acetyl-8-cyclopentyl-5-methyl-7-oxo-7,8-dihydropyrido[2,3-d]pyrimidin-2-yl)amino)pyridin-3-yl)-2,6-diazaspiro[3.3]heptan-2-yl)propanoyl)piperidin-4-yl)amino)-N-(6-(dimethylamino)pyridazin-3-yl)-6-(isopropylamino)nicotinamide] | 10 to 50 nM | > 100 nM
6 | CC(=O)c1c(C)c2cnc(Nc3ccc(N4CC5(CN(CCC(=O)N6CC7(CC(Nc8nc(NC(C)C)ccc8C(=O)Nc8ccc(N(C)C)nn8)C7)C6)C5)C4)cn3)nc2n(C2CCCC2)c1=O [CPD-455, 2-((2-(3-(6-(6-((6-acetyl-8-cyclopentyl-5-methyl-7-oxo-7,8-dihydropyrido[2,3-d]pyrimidin-2-yl)amino)pyridin-3-yl)-2,6-diazaspiro[3.3]heptan-2-yl)propanoyl)-2-azaspiro[3.3]heptan-6-yl)amino)-N-(6-(dimethylamino)pyridazin-3-yl)-6-(isopropylamino)nicotinamide] | ≤ 10 nM | < 50 nM
7 | CC(=O)c1c(C)c2cnc(Nc3ccc(N4CCC5(CC4)CC5C(=O)NC4CC5(C4)CC(Nc4nc(NC(C)C)ccc4C(=O)Nc4cn(C)c(C6CC6)n4)C5)cn3)nc2n(C2CCCC2)c1=O (centres unmarked) [CPD-457, 6-(6-((6-acetyl-8-cyclopentyl-5-methyl-7-oxo-7,8-dihydropyrido[2,3-d]pyrimidin-2-yl)amino)pyridin-3-yl)-N-(6-((3-((2-cyclopropyl-1-methyl-1H-imidazol-4-yl)carbamoyl)-6-(isopropylamino)pyridin-2-yl)amino)spiro[3.3]heptan-2-yl)-6-azaspiro[2.5]octane-1-carboxamide] | ≤ 10 nM | < 50 nM
8 | [2H]C([2H])([2H])Nc1ccc(C(=O)Nc2ccc(N(C)C)nn2)c(NC2CC3(C2)CN(C(=O)CCN2CCN(c4ccc(Nc5ncc6c(C)c(C(C)=O)c(=O)n(C7CCCC7)c6n5)nc4)CC2(C)C)C3)n1 [CPD-458, 2-((2-(3-(4-(6-((6-acetyl-8-cyclopentyl-5-methyl-7-oxo-7,8-dihydropyrido[2,3-d]pyrimidin-2-yl)amino)pyridin-3-yl)-2,2-dimethylpiperazin-1-yl)propanoyl)-2-azaspiro[3.3]heptan-6-yl)amino)-N-(6-(dimethylamino)pyridazin-3-yl)-6-((methyl-d3)amino)nicotinamide] | ≤ 10 nM | > 100 nM
9 | CC(=O)c1c(C)c2cnc(Nc3ccc(N4CCN(CCC(=O)N5CC6(CC(Nc7nc(NC(C)C)ccc7C(=O)Nc7ccc(N(C)C)nn7)C6)C5)C(C)(C)C4)cn3)nc2n(C2CCCC2)c1=O [CPD-459, 2-((2-(3-(4-(6-((6-acetyl-8-cyclopentyl-5-methyl-7-oxo-7,8-dihydropyrido[2,3-d]pyrimidin-2-yl)amino)pyridin-3-yl)-2,2-dimethylpiperazin-1-yl)propanoyl)-2-azaspiro[3.3]heptan-6-yl)amino)-N-(6-(dimethylamino)pyridazin-3-yl)-6-(isopropylamino)nicotinamide] | ≤ 10 nM | > 100 nM
10 | CC(=O)c1c(C)c2cnc(Nc3ccc(N4CCC(N5CCC(C(=O)NC6CC(Nc7nc(NC(C)C)ccc7C(=O)Nc7ccc(N(C)C)nn7)C6)C5)CC4)cn3)nc2n(C2CCCC2)c1=O (centres unmarked) [CPD-460, 2-((3-(1-(1-(6-((6-acetyl-8-cyclopentyl-5-methyl-7-oxo-7,8-dihydropyrido[2,3-d]pyrimidin-2-yl)amino)pyridin-3-yl)piperidin-4-yl)pyrrolidine-3-carboxamido)cyclobutyl)amino)-N-(6-(dimethylamino)pyridazin-3-yl)-6-(isopropylamino)nicotinamide] | ≤ 10 nM | > 100 nM
11 | CC(=O)c1c(C)c2cnc(Nc3ccc(N4CCC(N5CCC(C(=O)NCC6CC(Nc7nc(NC(C)C)ccc7C(=O)Nc7ccc(N(C)C)nn7)C6)C5)CC4)cn3)nc2n(C2CCCC2)c1=O (centres unmarked) [CPD-461, 2-((3-((1-(1-(6-((6-acetyl-8-cyclopentyl-5-methyl-7-oxo-7,8-dihydropyrido[2,3-d]pyrimidin-2-yl)amino)pyridin-3-yl)piperidin-4-yl)pyrrolidine-3-carboxamido)methyl)cyclobutyl)amino)-N-(6-(dimethylamino)pyridazin-3-yl)-6-(isopropylamino)nicotinamide] | ≤ 10 nM | 50 to 100 nM
12 | CC(=O)c1c(C)c2cnc(Nc3ccc(N4CCC(N5CCC(C(=O)NC6CCC(Nc7nc(NC(C)C)ccc7C(=O)Nc7ccc(N(C)C)nn7)CC6)C5)CC4)cn3)nc2n(C2CCCC2)c1=O (centres unmarked) [CPD-462, 2-((4-(1-(1-(6-((6-acetyl-8-cyclopentyl-5-menthyl-7-oxo-7,8-dihydropyrido[2,3-d]pyrimidin-2-yl)amino)pyridin-3-yl)piperidin-4-yl)pyrrolidine-3-carboxamido)cyclohexyl)amino)-N-(6-(dimethylamino)pyridazin-3-yl)-6-(isopropylamino)nicotinamide] | 10 to 50 nM | > 100 nM
13 | [2H]C([2H])([2H])Nc1ccc(C(=O)Nc2ccc(N(C)C)nn2)c(NC2CCN(C(=O)CN(C)C3CCN(c4ccc(Nc5ncc6c(C)c(C(C)=O)c(=O)n(C7CCCC7)c6n5)nc4)CC3)CC2)n1 [CPD-463, 2-((1-(N-(1-(6-((6-acetyl-8-cyclopentyl-5-methyl-7-oxo-7,8-dihydropyrido[2,3-d]pyrimidin-2-yl)amino)pyridin-3-yl)piperidin-4-yl)-N-methylglycyl)piperidin-4-yl)amino)-N-(6-(dimethylamino)pyridazin-3-yl)-6-((methyl-d3)amino)nicotinamide] | ≤ 10 nM | < 50 nM
14 | [2H]C([2H])([2H])Nc1ccc(C(=O)Nc2ccc(N(C)C)nn2)c(NC2CC3(C2)CN(C(=O)CN(C)C2CCN(c4ccc(Nc5ncc6c(C)c(C(C)=O)c(=O)n(C7CCCC7)c6n5)nc4)CC2)C3)n1 [CPD-464, 2-((2-(N-(1-(6-((6-acetyl-8-cyclopentyl-5-methyl-7-oxo-7,8-dihydropyrido[2,3-d]pyrimidin-2-yl)amino)pyridin-3-yl)piperidin-4-yl)-N-methylglycyl)-2-azaspiro[3.3]heptan-6-yl)amino)-N-(6-(dimethylamino)pyridazin-3-yl)-6-((methyl-d3)amino)nicotinamide] | ≤ 10 nM | < 50 nM
15 | CC(=O)c1c(C)c2cnc(Nc3ccc(N4CCC(N(C)CC(=O)N5CCC(Nc6nc(NC(C)C)ccc6C(=O)Nc6cc(C)n(C)n6)CC5)CC4)cn3)nc2n(C2CCCC2)c1=O [CPD-465, 2-((1-(N-(1-(6-((6-acetyl-8-cyclopentyl-5-methyl-7-oxo-7,8-dihydropyrido[2,3-d]pyrimidin-2-yl)amino)pyridin-3-yl)piperidin-4-yl)-N-methylglycyl)piperidin-4-yl)amino)-N-(1,5-dimethyl-1H-pyrazol-3-yl)-6-(isopropylamino)nicotinamide] | ≤ 10 nM | < 50 nM
16 | CC(=O)c1c(C)c2cnc(Nc3ccc(N4CCC(N(C)CC(=O)N5CCC(Nc6nc(NC(C)C)ccc6C(=O)Nc6cn(C)c(C7CC7)n6)CC5)CC4)cn3)nc2n(C2CCCC2)c1=O [CPD-466, 2-((1-(N-(1-(6-((6-acetyl-8-cyclopentyl-5-methyl-7-oxo-7,8-dihydropyrido[2,3-d]pyrimidin-2-yl)amino)pyridin-3-yl)piperidin-4-yl)-N-methylglycyl)piperidin-4-yl)amino)-N-(2-cyclopropyl-1-methyl-1H-imidazol-4-yl)-6-(isopropylamino)nicotinamide] | ≤ 10 nM | 50 to 100 nM
